This test has as its system human basophilic leukemia cell line KU812. The experiment in a line: Histamine release suppression test using human basophilic leukemia cell line KU812. The note with it: KU812 cells, final concentration 0.01%, CRA-1 15 μg/ml stimulation, N=4. Type of test: cell-based. Here is the method:
Histamine Release Suppression Test Using Human Basophilic Leukemia Cell Line KU812
A human basophilic leukemia cell line KU812 was grown in a RPMI 1640 medium (GIBCO) supplemented with 10% fetal bovine serum (treated at 56° C. for 30 min), at 37° C. in 5% CO2. The medium was washed by addition of a histamine release buffer (IMMUNOTECH) followed by centrifugation (1500 rpm, 5 min, 4° C.) and removal of the supernatant. The washing procedure was carried out twice. Then, a histamine release buffer was added to prepare a cell suspension having a cell density of 10^5 cells/ml. […] After centrifugation (2000 rpm, 10 min, 4° C.), the histamine content of the supernatant was measured using a Histamine EIA Kit (IMMUNOTECH) (N=4). Then, the mean and standard deviation of the measured values were obtained from the calibration curve, and the histamine release suppression rate (%) was calculated according to the following equation: [formula] wherein: • A represents the histamine content (n M) released from cells treated with the test substance/reference substance and CRA-1; • B represents the histamine content (n M) released from untreated cells; and • C represents the histamine content (n M) released from cells treated with CRA-1 only.

1 molecule from US6863907B2, “Antiallergic composition and antipruritic composition” (Sunstar, Inc., priority 1999, dated 2005) can be followed below.

`CNC[C@H](O)c1ccc(O)c(O)c1` [epinephrine]: the “histamine release suppression rate” value was 52±16%.
